Legend:
human platelets [1] = test: Thrombin-induced human platelet aggregation; assay type: cell-based; conditions: for NO delay of thrombin-induced platelet aggregation: DEA/NO 10 μM
How it was run: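 Washed human platelets in Tyrode's buffer pH 7.4 (2×10^5/μl) are stirred at 1200 rpm and 37 °C, and optical aggregation is followed for 5 min; under static conditions, A400 is tracked for 5 min instead. TSP1 agents or 1 μM peptide C6d are pre-incubated for 15 min before thrombin ± DEA/NO (10 μM).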

murine ASMC (CD47 null) = test: Murine ASMC proliferation; assay type: cell-based, mouse; conditions: CD47 null MASMC
Description: (§1) Murine ASMC were obtained from aortic segments harvested sterilely from C57B1/6 CD47 null or CD36 null mice as described (Ray et al., Methods Cell Sci 23:185-188, 2001) and cultured in SM-GM (Cambrex)+20% FCS. In the case of CD36 null cells, culture flasks were pre-coated with 1% gelatin prior to cell plating. Wild type C57B1/6 ASMC cultures were prepared as previously described (Isenberg et al., Matrix Biol 24:110-123, 2005). Cell culture purity was determined by immunohistochemistry staining for α-smooth muscle actin. Cells were used within passage 1 to 4 to minimize overgrowth of other cell types.
Proliferation of vascular cells was measured with a non-radioactive colorimetric assay (CellTiter 96, Promega, Madison, Wis.). Briefly, to each well of a 96-well culture plate (Nunc, Denmark) 5×10^3 cells were suspended in 100 μl of culture medium with indicated treatments and incubated for 72 hours at 37° C. in a 5% CO2 atmosphere. Following incubation 20 μl of tetrazolium compound/solubilization agent was added and incubation continued for 4 hours under the same conditions. The plate was then read on a MR580 Microelisa Auto Reader (Dynatech) at a wavelength of 490 nm. Appropriate zero time controls were run for all assays and the optical density readings obtained then subtracted from those obtained at 72 hours.

[2] = system: murine ASMC (WT, CD36 null, CD47 null); test: Murine ASMC adhesion on type I collagen; assay type: cell-based, mouse; conditions: CD47 null MASMC
Description: as §1
Cell adhesion was carried out in 96-well culture plates. After pre-coating wells with type I collagen (3 μg/ml in DPBS) harvested cells were plated at a density of 1×10^4 cells/well in medium plus 0.1% BSA and treatment agents and incubated in 5% CO2 for 1 h. Wells were washed with PBS and cells fixed with 1% glutaraldehyde for 10 min., washed and stained with 1% crystal violet for 20 min. Excess stain was rinsed away, adherent cells treated with 10% acetic acid, and plates read at 570 nm.

human platelets [3] = test: cGMP in human platelets; assay type: cell-based
Description: Fresh human platelets at 2×10^5 platelets/μl in Tyrode's buffer or PRP were pre-incubated with the indicated agents for 15 minutes and then challenged with DEA/NO for the indicated time interval at room temperature and total cGMP determined via immunoassay (Amersham, GE Healthcare, Buckinghamshire, UK). Murine WT and TSP1-null platelets were treated with DEA/NO and cGMP flux measured.

HAVSMC = test: Actin cytoskeleton staining (F-actin) in HAVSMC; assay type: cell-based, human
Description: VSMC were grown on glass well slides (Lab-Tek, Nunc) under standard growth conditions. Cells were incubated at 37° C. for 1 hour in serum and additive deficient growth medium and the indicated treatment agents, after which the media was removed and the cells were fixed in 4% paraformaldehyde in PBS (pH 7.4, Fisher Scientific) for 15 minutes at room temperature. After washing with DPBS, cells were permeabilized for 5 minutes in 0.1% Triton X-100 in PBS and then blocked in M199E/2% BSA for 30 min at room temperature. Cells were stained for F-actin with 1 unit/200 μl medium/1% BSA of Oregon Green 488 phalloidin (Molecular Probes). Slides were imaged using an Olympus IX70 microscope and photographed at constant exposure and gain. In other experiments VSMC were plated on 24-well culture plates (Nunc, Denmark) in smooth muscle growth medium (50,000 cells/well) and weaned from serum and additives over 24 hours. Cell treatment was performed with the indicated agents in plain medium with 0.1% BSA for 5 minutes. Wells were processed as described above. Following staining with phalloidin cells were incubated in methanol for 30 minutes, samples aliquoted to 96-well black plates and fluorescence read at 520 nm (excitation 495 nm). Data was normalized to total protein. Results represent the mean±SD of at least three separate experiments.

## TSP1: thrombospondin-1 prepared from human platelets
Human platelets [1]; GGTI-298 preincubation
  platelet aggregation at high shear in the presence of NO: maintained its ability to accelerate platelet aggregation
Human platelets [1]; high shear
  lowest concentration tested, sufficient to accelerate platelet aggregation in the presence of NO: 0.022 nM
Human platelets [1]; high shear, thrombin 0.2 U/ml
  NO delay of thrombin-induced platelet aggregation: reversed in a dose-dependent manner
Human platelets [1]; static / low shear conditions
  NO delay of thrombin-induced platelet aggregation: completely abrogated
Murine ASMC (CD47 null)
  NO-stimulated proliferation: did not inhibit
[2]; 22 nM
  NO-stimulated adhesion: only moderately inhibited
[2]; concentrations up to 2.2 nM
  NO-stimulated adhesion: had no effect
Human platelets [3]; PRP, TSP1 2.2 nM
  NO-stimulated cGMP flux in platelets: continued to block
Human platelets [3]; washed human platelets in Tyrode's buffer
  NO stimulated cGMP in platelets: decreased
HAVSMC; DEA/NO 10 μM
  NO-induced actin disassembly: completely prevented actin disassembly by NO
HAVSMC; S1P 100 nM, DEA/NO 10 μM
  disassembly of S1P-induced F actin by NO: attenuated
HAVSMC; agent alone (TSP1 2.2 nM, S1P 100 nM)
  F-actin levels: slightly increased F-actin levels

From patent US8865672B2, “Prevention of tissue ischemia and related methods” (The United States of America, as represented by the …, priority 2006, dated 2014)
